Measurements as given in article PMC6720600, “Discovery of Novel TASK-3 Channel Blockers Using a Pharmacophore-Based Virtual Screening” (International Journal of Molecular Sciences, 2019).

Columns and labels:
Type in all cases: cell-based
TASK-1 [1] = molecular target: T1, TASK-1 (Homo sapiens, UniProt O14649); assay: dose-response of TASK-1 channel inhibition (electrophysiology; expression details for TASK-1 not given)
T1 construct: gene KCNK3

TASK-3 = molecular target: T2, TASK-3 (Homo sapiens, UniProt Q9NPC2); assay: whole-cell patch clamp, HEK-293 cells transfected with TASK-3
T2 construct: gene KCNK9
T2 sequence (Q9NPC2 whole entry): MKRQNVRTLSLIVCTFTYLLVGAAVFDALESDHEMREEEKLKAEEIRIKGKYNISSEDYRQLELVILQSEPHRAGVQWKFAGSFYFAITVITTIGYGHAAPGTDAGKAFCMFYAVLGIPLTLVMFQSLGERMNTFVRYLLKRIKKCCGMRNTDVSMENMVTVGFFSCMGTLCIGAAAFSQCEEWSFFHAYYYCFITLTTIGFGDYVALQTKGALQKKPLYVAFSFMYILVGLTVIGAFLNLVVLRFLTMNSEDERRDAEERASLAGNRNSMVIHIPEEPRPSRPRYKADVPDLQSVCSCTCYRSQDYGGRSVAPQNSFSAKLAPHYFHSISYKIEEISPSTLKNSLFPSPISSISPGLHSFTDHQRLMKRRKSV

TASK-1 [2] = molecular target: T1, TASK-1; assay: dose-response curve on human TASK-1 (electrophysiology; value not given)

T1 sequence (O14649 whole entry): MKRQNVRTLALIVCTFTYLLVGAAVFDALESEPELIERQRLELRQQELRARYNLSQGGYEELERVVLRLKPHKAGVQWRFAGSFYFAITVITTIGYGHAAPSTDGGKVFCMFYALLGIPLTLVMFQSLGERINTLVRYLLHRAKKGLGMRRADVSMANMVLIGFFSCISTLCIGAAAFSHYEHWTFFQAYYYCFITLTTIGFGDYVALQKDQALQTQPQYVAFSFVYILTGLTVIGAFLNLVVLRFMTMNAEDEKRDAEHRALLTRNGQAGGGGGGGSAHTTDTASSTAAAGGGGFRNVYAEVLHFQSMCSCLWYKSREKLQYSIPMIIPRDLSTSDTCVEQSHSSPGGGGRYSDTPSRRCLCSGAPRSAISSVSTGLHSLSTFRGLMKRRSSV

Compound | IC50 (TASK-1 [1]) [µM] | IC50 (TASK-3) [µM] | IC50 (TASK-1 [2])
CC(C(=O)Nc1ccc(O)cc1F)c1cc2cccc(NC(=O)c3ccc(O)cc3)c2o1 (stereo not shown) [DR16.1] | 21.2 ± 5.5 | 14.2 ± 3.4 | 
CC(C(=O)Nc1ccc(O)cc1F)c1cc2ccccc2o1 (stereo not shown) [DR16] |  | 56.8 ± 3.9 | Lead ligand DR16 blocks human TASK channels.
